A short description of data set [1]: Cytotoxicity against human Huh7.5 cells infected with HCV genotype 4a assessed as morphological changes after 72 hrs by inverted light microscopy. The format is cell-based, Huh-7.
The subject of another data set is Hepatitis C virus. Kind of data set: Antiviral activity against HCV genotype 4a ED-43/SG-feo (VYG) replicons infected in human Huh7.5 cells assessed as inhibition of viral replication after 72 hrs by immunofluorescence assay. In kind it is functional, organism-based, Hepacivirus hominis. To be noted: Huh-7, 72 h.
Data set [2] can be described thus: Cytotoxicity against human Huh7.5 cells infected with HCV genotype 4a assessed as cell viability after 72 hrs by trypan blue dye-based phase contrast microscopy. To be noted: Huh-7, 72 h.

Bounds are passed on as bounds.

As to `CC(=O)Nc1c(C#N)c(-c2ccccc2)c(-c2ccccc2)n1C1CCCCC1`, the CC50 at 72 h in data set [1] was 183 µM. For the same compound, in the data set on Hepatitis C virus, the IC50 is greater than 150 µM. Besides, the CC50 in data set [2] amounted to 183 µM.

Take `CC(=O)Nc1c(C#N)c(-c2ccccc2)c(-c2ccccc2)n1-c1cccc(Cl)c1`: the CC50 at 72 h in data set [1] was found to be 146 µM. The IC50 with Hepatitis C virus is greater than 150 µM. Moreover, in data set [2], the CC50 worked out at 146 µM.

Consider `Cc1nc2c(c(-c3ccccc3)c(-c3ccccc3)n2-c2cccc(Cl)c2)c(=O)[nH]1`, for which, in data set [1], the CC50 at 72 h is 97 µM. The IC50 in the data set with Hepatitis C virus was greater than 150 µM. Further, the CC50 in data set [2] is 97 µM.

For the compound `N#Cc1c(-c2ccccc2)c(-c2ccccc2)n(-c2cccc(Cl)c2)c1N`, the cytotoxic concentration (CC50) at 72 h in data set [1] is 189 µM. Moreover, the IC50 in the data set with Hepatitis C virus is greater than 150 µM. Also, the half-maximal cytotoxic concentration (CC50) in data set [2] was 189 µM.

Regarding `N#Cc1c(-c2ccccc2)c(-c2ccccc2)n(-c2ccc(Cl)cc2)c1N`, the CC50 at 72 h in data set [1] stood at 189 µM. Besides, in the data set on Hepatitis C virus, the IC50 is greater than 150 µM. For the same compound, in data set [2], the CC50 was found to be 189 µM.

In the case of `Cc1cccc(Nc2ncnc3c2c(-c2ccccc2)c(-c2ccccc2)n3-c2ccc(Cl)cc2)c1`, the CC50 at 72 h in data set [1] stood at 1020 µM. The IC50 in the data set with Hepatitis C virus is greater than 150 µM. Further, the CC50 in data set [2] came to 1020 µM.

As for `Cc1nc2c(c(-c3ccccc3)c(-c3ccccc3)n2-c2ccc(Cl)cc2)c(=O)[nH]1`, the CC50 at 72 h in data set [1] amounted to 97 µM. Also, the concentration for half-maximal inhibition (IC50) in the data set on Hepatitis C virus was greater than 150 µM. The CC50 in data set [2] amounted to 97 µM.

Consider `Cc1ccc(Nc2ncnc3c2c(-c2ccccc2)c(-c2ccccc2)n3-c2ccc(Cl)cc2)cc1`, for which the CC50 at 72 h in data set [1] was 123 µM. The IC50 in the data set on Hepatitis C virus was greater than 150 µM. Further, the CC50 in data set [2] was found to be 123 µM.

Take `Clc1ccc(-n2c(-c3ccccc3)c(-c3ccccc3)c3c(Nc4ccccc4)ncnc32)cc1`: the CC50 at 72 h in data set [1] was found to be 127 µM. Besides, in the data set with Hepatitis C virus, the IC50 was greater than 150 µM. Besides, the CC50 in data set [2] is 127 µM.

Take `S=c1[nH]nc2c3c(-c4ccccc4)c(-c4ccccc4)n(C4CCCCC4)c3ncn12`: the CC50 at 72 h in data set [1] stood at 188 µM. The IC50 in the data set with Hepatitis C virus was greater than 150 µM. Moreover, the CC50 in data set [2] came to 188 µM.

`O=c1[nH]cnc2c1c(-c1ccccc1)c(-c1ccccc1)n2-c1cccc(Cl)c1`: the CC50 at 72 h in data set [1] came to 151 µM. Also, the IC50 in the data set with Hepatitis C virus is greater than 150 µM. Further, the CC50 in data set [2] was 151 µM.

As for `CC(=O)Nc1c(C#N)c(-c2ccccc2)c(-c2ccccc2)n1-c1ccc(Cl)cc1`, in data set [1], the CC50 at 72 h amounted to 146 µM. For the same compound, the IC50 in the data set on Hepatitis C virus was greater than 150 µM. The CC50 in data set [2] was found to be 146 µM.

Consider `S=c1[nH]cnc2c1c(-c1ccccc1)c(-c1ccccc1)n2C1CCCCC1`, for which the CC50 at 72 h in data set [1] was found to be 130 µM. Besides, the half-inhibitory concentration (IC50) in the data set with Hepatitis C virus is greater than 150 µM. Further, in data set [2], the CC50 is 130 µM.

For the compound `NNc1ncnc2c1c(-c1ccccc1)c(-c1ccccc1)n2C1CCCCC1`, the 50% cytotoxic concentration (CC50) at 72 h in data set [1] turned out to be 157 µM. In the data set on Hepatitis C virus, the IC50 was greater than 150 µM. In addition, the CC50 in data set [2] was 157 µM.

Regarding `Clc1cccc(-n2c(-c3ccccc3)c(-c3ccccc3)c3c2ncn2cnnc32)c1`, in data set [1], the CC50 at 72 h was determined as 190 µM. In addition, the IC50 in the data set on Hepatitis C virus is greater than 150 µM. The CC50 in data set [2] worked out at 190 µM.

With `Cc1cccc(Nc2ncnc3c2c(-c2ccccc2)c(-c2ccccc2)n3C2CCCCC2)c1`, in data set [1], the CC50 at 72 h came out at 131 µM. In addition, the IC50 with Hepatitis C virus was greater than 150 µM. Moreover, in data set [2], the CC50 was 131 µM.

As for `Clc1cccc(-n2c(-c3ccccc3)c(-c3ccccc3)c3c(Nc4ccccc4)ncnc32)c1`, in data set [1], the half-maximal cytotoxic concentration (CC50) at 72 h stood at 148 µM. Further, the IC50 with Hepatitis C virus was greater than 150 µM. In addition, the CC50 in data set [2] worked out at 148 µM.

Regarding `Cc1nnc2c3c(-c4ccccc4)c(-c4ccccc4)n(-c4cccc(Cl)c4)c3ncn12`, the CC50 at 72 h in data set [1] is 161 µM. In the data set with Hepatitis C virus, the IC50 is greater than 150 µM. Moreover, the CC50 in data set [2] was determined as 161 µM.

Take `C(=N\Nc1ncnc2c1c(-c1ccccc1)c(-c1ccccc1)n2C1CCCCC1)/c1ccccc1`: in data set [1], the CC50 at 72 h was found to be 148 µM. Also, the IC50 in the data set with Hepatitis C virus was greater than 150 µM. Moreover, the 50% cytotoxic concentration (CC50) in data set [2] came out at 148 µM.

Take `c1ccc(Nc2ncnc3c2c(-c2ccccc2)c(-c2ccccc2)n3C2CCCCC2)cc1`: the CC50 at 72 h in data set [1] worked out at 158 µM. The half-inhibitory concentration (IC50) in the data set on Hepatitis C virus is greater than 150 µM. Also, the CC50 in data set [2] was 158 µM.

With `N#Cc1c(-c2ccccc2)c(-c2ccccc2)n(C2CCCCC2)c1N`, the CC50 at 72 h in data set [1] worked out at 176 µM. Moreover, the IC50 with Hepatitis C virus is greater than 150 µM. The CC50 in data set [2] turned out to be 176 µM.

Turning to `Cc1nnc2c3c(-c4ccccc4)c(-c4ccccc4)n(C4CCCCC4)c3ncn12`, the CC50 at 72 h in data set [1] stood at 172 µM. Moreover, the IC50 in the data set with Hepatitis C virus was greater than 150 µM. Besides, the CC50 in data set [2] was determined as 172 µM.

As to `Cc1ccccc1Nc1ncnc2c1c(-c1ccccc1)c(-c1ccccc1)n2C1CCCCC1`, the CC50 at 72 h in data set [1] was 153 µM. Besides, in the data set on Hepatitis C virus, the half-maximal inhibitory concentration (IC50) is greater than 150 µM. Moreover, the CC50 in data set [2] was 153 µM.

Regarding `Clc1ccc(-n2c(-c3ccccc3)c(-c3ccccc3)c3c2ncn2cnnc32)cc1`, the CC50 at 72 h in data set [1] came out at 190 µM. Besides, in the data set on Hepatitis C virus, the IC50 was greater than 150 µM. In addition, the CC50 in data set [2] is 190 µM.

Consider `S=c1[nH]cnc2c1c(-c1ccccc1)c(-c1ccccc1)n2-c1ccc(Cl)cc1`, for which the CC50 at 72 h in data set [1] was 121 µM. Moreover, the IC50 in the data set on Hepatitis C virus is greater than 150 µM. Also, in data set [2], the CC50 amounted to 121 µM.

Regarding `Cc1nc2c(c(-c3ccccc3)c(-c3ccccc3)n2C2CCCCC2)c(=O)[nH]1`, the CC50 at 72 h in data set [1] turned out to be 130 µM. In the data set on Hepatitis C virus, the IC50 is greater than 150 µM. Further, the CC50 in data set [2] was determined as 130 µM.

In the case of `Cc1cccc(Nc2ncnc3c2c(-c2ccccc2)c(-c2ccccc2)n3-c2cccc(Cl)c2)c1`, the CC50 at 72 h in data set [1] stood at 103 µM. Besides, the concentration for half-maximal inhibition (IC50) in the data set with Hepatitis C virus was greater than 150 µM. For the same compound, the CC50 in data set [2] was 103 µM.

As for `S=c1[nH]cnc2c1c(-c1ccccc1)c(-c1ccccc1)n2-c1cccc(Cl)c1`, in data set [1], the CC50 at 72 h was 145 µM. Further, in the data set on Hepatitis C virus, the IC50 is greater than 150 µM. The cytotoxic concentration (CC50) in data set [2] is 145 µM.

`c1ccc(-c2c(-c3ccccc3)n(C3CCCCC3)c3ncn4cnnc4c23)cc1`: the CC50 at 72 h in data set [1] was found to be 178 µM. In addition, in the data set on Hepatitis C virus, the IC50 was greater than 150 µM. Also, the CC50 in data set [2] came to 178 µM.

Turning to `Cc1nnc2c3c(-c4ccccc4)c(-c4ccccc4)n(-c4ccc(Cl)cc4)c3ncn12`, in data set [1], the CC50 at 72 h is 138 µM. In addition, the IC50 in the data set with Hepatitis C virus was greater than 150 µM. For the same compound, in data set [2], the CC50 was 138 µM.

For `S=c1[nH]nc2c3c(-c4ccccc4)c(-c4ccccc4)n(-c4cccc(Cl)c4)c3ncn12`, the CC50 at 72 h in data set [1] was 184 µM. For the same compound, the half-maximal inhibitory concentration (IC50) with Hepatitis C virus is greater than 150 µM. For the same compound, the CC50 in data set [2] turned out to be 184 µM.

Consider `S=c1[nH]nc2c3c(-c4ccccc4)c(-c4ccccc4)n(-c4ccc(Cl)cc4)c3ncn12`, for which the half-maximal cytotoxic concentration (CC50) at 72 h in data set [1] was found to be 138 µM. The IC50 with Hepatitis C virus is greater than 150 µM. Besides, the cytotoxic concentration (CC50) in data set [2] is 138 µM.

Take `O=c1[nH]cnc2c1c(-c1ccccc1)c(-c1ccccc1)n2C1CCCCC1`: the CC50 at 72 h in data set [1] was 190 µM. Besides, the concentration for half-maximal inhibition (IC50) in the data set with Hepatitis C virus was greater than 150 µM. Further, the CC50 in data set [2] is 190 µM.

Regarding `O=c1[nH]cnc2c1c(-c1ccccc1)c(-c1ccccc1)n2-c1ccc(Cl)cc1`, the CC50 at 72 h in data set [1] was 151 µM. In the data set on Hepatitis C virus, the IC50 is greater than 150 µM. The CC50 in data set [2] stood at 151 µM.

On to `Clc1ncnc2c1c(-c1ccccc1)c(-c1ccccc1)n2C1CCCCC1`, for which, in data set [1], the CC50 at 72 h was found to be 155 µM. Further, in the data set on Hepatitis C virus, the IC50 is greater than 150 µM. The CC50 in data set [2] stood at 155 µM.

In the case of `Cc1ccc(Nc2ncnc3c2c(-c2ccccc2)c(-c2ccccc2)n3-c2cccc(Cl)c2)cc1`, the CC50 at 72 h in data set [1] is 123 µM. Also, the IC50 in the data set on Hepatitis C virus was greater than 150 µM. In data set [2], the CC50 worked out at 123 µM.

In the case of `Cc1ccc(Nc2ncnc3c2c(-c2ccccc2)c(-c2ccccc2)n3C2CCCCC2)cc1`, in data set [1], the CC50 at 72 h was found to be 153 µM. Moreover, the IC50 in the data set with Hepatitis C virus was greater than 150 µM. The CC50 in data set [2] is 153 µM.

The values are drawn from ChEMBL document CHEMBL3797151, “Design, synthesis, assessment, and molecular docking of novel pyrrolopyrimidine (7-deazapurine) derivatives as non-nucleoside hepatitis C virus NS5B polymerase inhibitors” (Bioorg Med Chem, 2016).
